# What was measured:
# human cancer cell lines [1] = assay: GDSC2 IC50 drug screening of cancer cell lines, divided by cancer gene TVA sub-groups; assay type: cell-based; conditions: except for two cell lines in "Strong Drivers" group
# Excerpt: Bulk data of “IC50s Drug Screening” was obtained from Genomics of Drug Sensitivity in Cancer website. Bulk mutation data for cell lines was obtained from Cell Model Passports website.
# The analysis was focused on pairs of drugs and genetic alterations that met the following criteria in GDSC's database: (i) drug response associated with a cancer gene variant (ii) at least 50 cell lines harboring the cancer gene alteration (iii) effect size above 0.7 (above 0.5 indicates a moderate effect size and above 1 indicates a large effect size) (iv) drug-gene association is statistically significant (false discovery rate (FDR) p-value<0.1) and (v) the drug effect on the mutated protein of associated pathways can explain the association.
# For comparison of response to drugs between genes variants' TVA values, samples were binned according to their gene variant TVA score and according to appearance in the drivers' binomial catalogue. Non-drivers were defined as variants absent from the binomial catalogue with TVA≤1.5. This larger TVA value for variants not in the catalog enlarges the number of variants in the non-driver group. […]
# Rare pathogenic variants are becoming important in the inter-individual variability in drug response. […] Genomic features and drug response associations were analyzed from GDCS's analysis of variance model that met certain criteria (see Materials and Methods). […]
# human cancer cell lines [2] = conditions: GDSC2; BRAF variants, "Very Strong Drivers" group (includes V600E class I variant) versus all other groups; cited from earlier work
SMILES,association of TVA's sub-groups of BRAF variants with drug response (human cancer cell lines [1]),IC50 of cancer cell lines (human cancer cell lines [2])
CC(C)(C)c1nc(-c2cccc(NS(=O)(=O)c3c(F)cccc3F)c2F)c(-c2ccnc(N)n2)s1 [Dabrafenib],associated with drug response,–
CCCS(=O)(=O)Nc1ccc(F)c(C(=O)c2c[nH]c3ncc(Cl)cc23)c1F [PLX4720],–,distinct low IC50

# — US20250316381A1, “Assessment of Relative Quantitative Effect of Somatic Point Mutations at the Individual Tumor Level for Prioritization” (Hadasit Medical Research Services and Development Ltd., priority 2022, published 2025)
